Data published in patent US8158628B2, “Sulfonylated 1,2,3,4-tetrahydropyrrolo[1,2-a]pyrazine compounds and their use as pharmaceuticals” (Gruenenthal GmbH, priority 2009, dated 2012).

Molecular target: T1, B1R of the rat (Rattus norvegicus, UniProt P97583)
T1 construct: expressed in transfected cells; host or cells: CHO K1 cells (Chinese hamster ovary), stably transfected
T1 sequence (P97583 1-337): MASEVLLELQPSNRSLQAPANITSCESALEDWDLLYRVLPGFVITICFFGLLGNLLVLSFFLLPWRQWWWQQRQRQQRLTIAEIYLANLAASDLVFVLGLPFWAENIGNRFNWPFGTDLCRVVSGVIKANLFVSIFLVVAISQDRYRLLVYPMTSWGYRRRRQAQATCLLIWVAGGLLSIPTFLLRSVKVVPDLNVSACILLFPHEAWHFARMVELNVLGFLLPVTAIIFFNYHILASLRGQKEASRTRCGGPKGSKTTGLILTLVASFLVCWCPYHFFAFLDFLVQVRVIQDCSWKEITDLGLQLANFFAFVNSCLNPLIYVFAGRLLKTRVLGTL
Assay: FLIPR Ca2+ functional assay, B1R antagonism, rat B1R in CHO K1 cells
Assay type: cell-based
Settings: test substance 10 μM; rB1R CHO K1 cells; agonist Des-Arg9 bradykinin at EC80; % of maximum achievable inhibition
Protocol: The agonistic or antagonistic action of substances on the bradykinin 1 receptor (B1R) of the human and rat species can be quantified with ectopically expressing cell lines (CHO K1 cells) and with the aid of a Ca^2+-sensitive dye (Fluo-4) using a fluorescent imaging plate reader (FLIPR). The value in % activation is based on the Ca^2+ signal after addition of Lys-Des-Arg^9 bradykinin (0.5 nM) or Des-Arg^9 bradykinin (100 nM). Antagonists lead to a suppression of the Ca^2+ influx following administration of the agonist. The % inhibition in comparison with the maximum achievable inhibition is indicated.
1. Functional Investigation on the Bradykinin 1 Receptor (B1R) The agonistic or antagonistic action of substances can be determined on the bradykinin 1 receptor (B1R) of the human and rat species with the following assay. According to this assay, the Ca^2+ inflow through the channel is quantified with the aid of a Ca^2+-sensitive dye (Fluo-4 type, Molecular Probes Europe BV, Leiden, Netherlands) in a fluorescent imaging plate reader (FLIPR, Molecular Devices, Sunnyvale, USA). 2. Method: Chinese hamster ovary cells (CHO K1 cells) which are stably transfected with the human B1R gene (hB1R cells) or the B1R gene of the rat (rB1R cells) are used. For functional investigations these cells are plated-out onto black 96-well plates with a clear base (BD Biosciences, Heidelberg, Germany or Greiner, Frickenhausen, Germany) in a density of 20,000-35,000 cells/well. Overnight the cells are incubated at 37° C. and 5% CO2 in culture medium (hB1R cells: Ham's Nutrient Mixture F12, Gibco Invitrogen GmbH, Karlsruhe, Germany or DMEM, Sigma-Aldrich, Taufkirchen, Germany; rB1R cells: D-MEM/F12, Gibco Invitrogen, Karlsruhe, Germany) with 10 vol. % FBS (foetal bovine serum, Gibco Invitrogen GmbH, Karlsruhe, Germany or PAN Biotech GmbH, Aidenbach, Germany).
On the following day the cells are loaded with 2.13 μM Fluo-4 (Molecular Probes Europe BV, Leiden, Netherlands) in HBSS buffer (Hank's buffered saline solution, Gibco Invitrogen GmbH, Karlsruhe, Germany) with 2.5 mM probenecid (Sigma-Aldrich, Taufkirchen, Germany) and 10 mM HEPES (Sigma-Aldrich, Taufkirchen, Germany) for 60 min at 37° C. The plates are subsequently washed twice with HBSS buffer, and HBSS buffer which additionally contains 0.1% BSA (bovine serum albumin; Sigma-Aldrich, Taufkirchen, Germany), 5.6 mM glucose and 0.05% gelatine (Merck KGaA, Darmstadt, Germany) is added. After a further incubation of 20 minutes at RT, the plates are inserted into the FLIPR for Ca^2+ measurement. Alternatively they are washed with buffer A (15 mM HEPES, 80 mM NaCl, 5 mM KCl, 1.2 mM CaCl2, 0.7 mM MgSO4, 2 g/l glucose, 2.5 mM probenecid) and loaded with buffer A with added 2.5 μM Fluo-4 and 0.025% Pluronic F127 (Sigma-Aldrich, Taufkirchen, Germany). The cells are then washed twice with buffer A and incubated for 30 minutes with buffer A, which additionally contains 0.05% BSA and 0.05% gelatine, at RT and then used for Ca^2+ measurement in the FLIPR. The Ca^2+-dependent fluorescence is measured here before and after addition of substances (λex=488 nm, λem=540 nm). The quantification is performed by measuring the highest fluorescence intensity (FC, fluorescence counts) over time.
The FLIPR protocol comprises two additions of substance. Test substances (10 μM) are first pipetted onto the cells and the Ca^2+ inflow is compared with the control (hB1R: Lys-Des-Arg^9 bradykinin >=50 nM; rB1R: Des-Arg^9 bradykinin 10 μM). The value in % activation based on the Ca^2+ signal after addition of Lys-Des-Arg^9 bradykinin (>=50 nM) or Des-Arg^9 bradykinin (10 μM) is obtained therefrom. After incubation for 10-20 minutes, Lys-Des-Arg^9 bradykinin (hB1R) or Des-Arg^9 bradykinin (rB1R) is applied in the EC80 concentration and the inflow of Ca^2+ is likewise determined.
Antagonists lead to a suppression of the Ca^2+ inflow. The % inhibition in comparison with the maximum achievable inhibition is calculated. […]

Question: With `Cc1cccc(Cl)c1S(=O)(=O)N1CCn2cccc2C1COCC(=O)N1CCC2(CC1)CCN(c1ccncc1)C2` (stereo not drawn) [Example 14, 2-((2-(2-Chloro-6-methylphenylsulfonyl)-1,2,3,4-tetrahydropyrrolo[1,2-a]pyrazin-1-yl)methoxy)-1-(2-(pyridin-4-yl)-2,8-diazaspiro[4.5]decan-8-yl)ethanone] as the molecule, how does the inhibition at 10 µM read?
Answer: Its inhibition at 10 µM is 109%.

Question: `O=C(CC1c2cccn2CCN1S(=O)(=O)c1ccc(C(F)(F)F)cc1Cl)N1CCCCC1` (stereo not drawn) [Example 19, 2-(2-(2-Chloro-4-(trifluoromethyl)phenylsulfonyl)-1,2,3,4-tetrahydropyrrolo[1,2-a]pyrazin-1-yl)-1-(piperidin-1-yl)ethanone] was tested. Which inhibition at 10 µM did it give?
Answer: The inhibition at 10 µM was -7.98%.

Question: Which inhibition at 10 µM does the source give for `O=C(CC1c2cccn2CCN1S(=O)(=O)c1ccc(C(F)(F)F)cc1Cl)N1CCc2ccccc2C1` (stereo not drawn) [Example 20, 2-(2-(2-Chloro-4-(trifluoromethyl)phenylsulfonyl)-1,2,3,4-tetrahydropyrrolo[1,2-a]pyrazin-1-yl)-1-(3,4-dihydroisoquinolin-2(1H)-yl)ethanone] here?
Answer: Its inhibition at 10 µM is 30.7%.

Question: How did the inhibition at 10 µM turn out when `COc1cc(C)c(S(=O)(=O)N2CCn3cccc3C2CC(=O)N2CCC(O)(c3cccnc3)CC2)c(C)c1` (stereo not drawn) [Example 141, 1-(4-Hydroxy-4-pyridin-3-yl-piperidin-1-yl)-2-[2-[(4-methoxy-2,6-dimethyl-phenyl)sulfonyl]-1,2,3,4-tetrahydro-pyrrolo[1,2-a]pyrazin-1-yl]ethanone] was run?
Answer: Its inhibition at 10 µM is 37.8%.

Question: `COc1cc(C)c(S(=O)(=O)N2CCn3cccc3C2CC(=O)NCCCN2CCOCC2)c(C)c1` (stereo not drawn) [Example 142, 2-[2-[(4-Methoxy-2,6-dimethyl-phenyl)sulfonyl]-1,2,3,4-tetrahydro-pyrrolo[1,2-a]pyrazin-1-yl]-N-(3-morpholin-4-yl-propyl)-acetamide] was tested. Which inhibition at 10 µM did it give?
Answer: Its inhibition at 10 µM is 37.9%.

Question: For `COc1cc(C)c(S(=O)(=O)N2CCn3cccc3C2CC(=O)NCCCN2C(C)CCCC2C)c(C)c1` (stereo not drawn) [Example 143, N-[3-(2,6-Dimethyl-piperidin-1-yl)-propyl]-2-[2-[(4-methoxy-2,6-dimethyl-phenyl)sulfonyl]-1,2,3,4-tetrahydro-pyrrolo[1,2-a]pyrazin-1-yl]-acetamide], which inhibition at 10 µM is on record?
Answer: The inhibition at 10 µM was 37.4%.

Question: For `COc1cc(C)c(S(=O)(=O)N2CCn3cccc3C2CC(=O)N2CCN(c3ccccc3F)CC2)c(C)c1` (stereo not drawn) [Example 144, 1-[4-(2-Fluorophenyl)-piperazin-1-yl]-2-[2-[(4-methoxy-2,6-dimethyl-phenyl)sulfonyl]-1,2,3,4-tetrahydro-pyrrolo[1,2-a]pyrazin-1-yl]-ethanone], which inhibition at 10 µM is on record?
Answer: The inhibition at 10 µM was 70.3%.

Question: Which inhibition at 10 µM does the source give for `COc1cc(C)c(S(=O)(=O)N2CCn3cccc3C2CC(=O)N2CCN(c3ccccc3)CC2)c(C)c1` (stereo not drawn) [Example 145, 2-[2-[(4-Methoxy-2,6-dimethyl-phenyl)sulfonyl]-1,2,3,4-tetrahydro-pyrrolo[1,2-a]pyrazin-1-yl]-1-(4-phenyl-piperazin-1-yl)-ethanone] here?
Answer: The inhibition at 10 µM was 57.7%.

Question: With `COc1cc(C)c(S(=O)(=O)N2CCn3cccc3C2CC(=O)N2CCC(CCN3CCCCC3)CC2)c(C)c1` (stereo not drawn) [Example 146, 2-[2-[(4-Methoxy-2,6-dimethyl-phenyl)sulfonyl]-1,2,3,4-tetrahydro-pyrrolo[1,2-a]pyrazin-1-yl]-1-[4-(2-piperidin-1-yl-ethyl)-piperidin-1-yl]-ethanone] as the molecule, how does the inhibition at 10 µM read?
Answer: The inhibition at 10 µM was 73.5%.

Question: For `COc1cc(C)c(S(=O)(=O)N2CCn3cccc3C2CC(=O)N2CCN(CCn3c(C)ccc3C)CC2)c(C)c1` (stereo not drawn) [Example 147, 1-[4-[2-(2,5-Dimethyl-1H-pyrrol-1-yl)-ethyl]-piperazin-1-yl]-2-[2-[(4-methoxy-2,6-dimethyl-phenyl)sulfonyl]-1,2,3,4-tetrahydro-pyrrolo[1,2-a]pyrazin-1-yl]-ethanone], which inhibition at 10 µM is on record?
Answer: The inhibition at 10 µM was 86.5%.

Question: `COc1cc(C)c(S(=O)(=O)N2CCn3cccc3C2CC(=O)N2CCC(c3nc4cc(C)ccc4[nH]3)CC2)c(C)c1` (stereo not drawn) [Example 148, 2-[2-[(4-Methoxy-2,6-dimethyl-phenyl)sulfonyl]-1,2,3,4-tetrahydro-pyrrolo[1,2-a]pyrazin-1-yl]-1-[4-(5-methyl-1H-benzoimidazol-2-yl)-piperidin-1-yl]-ethanone] was tested. Which inhibition at 10 µM did it give?
Answer: Its inhibition at 10 µM is 70.4%.

Question: With `COc1cc(C)c(S(=O)(=O)N2CCn3cccc3C2CC(=O)N2CCN(c3ccccn3)CC2)c(C)c1` (stereo not drawn) [Example 149, 2-[2-[(4-Methoxy-2,6-dimethyl-phenyl)sulfonyl]-1,2,3,4-tetrahydro-pyrrolo[1,2-a]pyrazin-1-yl]-1-(4-pyridin-2-yl-piperazin-1-yl)-ethanone] as the molecule, how does the inhibition at 10 µM read?
Answer: The inhibition at 10 µM was 68.9%.

Question: How did the inhibition at 10 µM turn out when `COc1cc(C)c(S(=O)(=O)N2CCn3cccc3C2CC(=O)N2CCCN(c3ncccc3C#N)CC2)c(C)c1` (stereo not drawn) [Example 150, 2-[4-[2-[2-[(4-Methoxy-2,6-dimethyl-phenyl)sulfonyl]-1,2,3,4-tetrahydro-pyrrolo[1,2-a]pyrazin-1-yl]-acetyl]-[1,4]diazepan-1-yl]-pyridine-3-carbonitrile] was run?
Answer: Its inhibition at 10 µM is 50.3%.

Question: For `COc1cc(C)c(S(=O)(=O)N2CCn3cccc3C2CC(=O)NCC2CCN(Cc3ccccc3)C2)c(C)c1` (stereo not drawn) [Example 151, N-[(1-Benzyl-pyrrolidin-3-yl)-methyl]-2-[2-[(4-methoxy-2,6-dimethyl-phenyl)sulfonyl]-1,2,3,4-tetrahydro-pyrrolo[1,2-a]pyrazin-1-yl]-acetamide], which inhibition at 10 µM is on record?
Answer: Its inhibition at 10 µM is 104%.

Question: `COc1cc(C)c(S(=O)(=O)N2CCn3cccc3C2CC(=O)N2CCN(c3ccc(C(F)(F)F)cn3)CC2)c(C)c1` (stereo not drawn) [Example 152, 2-[2-[(4-Methoxy-2,6-dimethyl-phenyl)sulfonyl]-1,2,3,4-tetrahydro-pyrrolo[1,2-a]pyrazin-1-yl]-1-[4-[5-(trifluoromethyl)-pyridin-2-yl]-piperazin-1-yl]-ethanone] was tested. Which inhibition at 10 µM did it give?
Answer: Its inhibition at 10 µM is 50.9%.

Question: Which inhibition at 10 µM does the source give for `Cc1cccc(Cl)c1S(=O)(=O)N1CCn2cccc2C1CC(=O)NCCN1CCCC1` (stereo not drawn) [Example 153, 2-[2-[(2-Chloro-6-methyl-phenyl)sulfonyl]-1,2,3,4-tetrahydro-pyrrolo[1,2-a]pyrazin-1-yl]-N-(2-pyrrolidin-1-yl-ethyl)-acetamide] here?
Answer: The inhibition at 10 µM was 15.8%.

Question: How did the inhibition at 10 µM turn out when `Cc1cccc(Cl)c1S(=O)(=O)N1CCn2cccc2C1CC(=O)NCCCN1CCOCC1` (stereo not drawn) [Example 154, 2-[2-[(2-Chloro-6-methyl-phenyl)sulfonyl]-1,2,3,4-tetrahydro-pyrrolo[1,2-a]pyrazin-1-yl]-N-(3-morpholin-4-yl-propyl)-acetamide] was run?
Answer: Its inhibition at 10 µM is 41.9%.

Question: `Cc1cccc(Cl)c1S(=O)(=O)N1CCn2cccc2C1CC(=O)NCCCN1C(C)CCCC1C` (stereo not drawn) [Example 155, 2-[2-[(2-Chloro-6-methyl-phenyl)sulfonyl]-1,2,3,4-tetrahydro-pyrrolo[1,2-a]pyrazin-1-yl]-N-[3-(2,6-dimethyl-piperidin-1-yl)-propyl]-acetamide] was tested. Which inhibition at 10 µM did it give?
Answer: Its inhibition at 10 µM is 61.5%.
